# Experimental data taken from patent US11744868B1, “Inonotus obliquus dextran, preparation method and application thereof” (Jilin Agricultural University, priority 2022, dated 2023).
# Where a name gives a salt, the structure may show the parent alone.
# How the values were obtained:
# [1] = system: AsPC-1 (human metastatic pancreatic adenocarcinoma cells) cells; assay: CCK-8 cell viability of AsPC-1 cells; format: cell-based; details: for Cell vitality (%): 24 h, n = 3
# Protocol: Therapeutic effects of two drugs, Inonotus Obliquus polysaccharide and gemcitabine hydrochloride, alone and in combination, on AsPC-1 (human metastatic pancreatic adenocarcinoma cells) cells are investigated respectively. Cell culture: AsPC-1 (human metastatic pancreatic adenocarcinoma cells) cells are resuscitated in culture flasks and incubated at 37° C. in a 5% CO2 incubator; the cells are adhered to the wall and then subjected to passaging or […] operations; inoculation: when the cells are in logarithmic growth phase, they are washed twice with PBS buffer (phosphate concentration 0.01 M, pH 7.2-7.4); the cells are digested by 1 mL of 0.25% trypsin-EDTA (ethylene diamine tetraacetic acid) for 1-2 min, then 2 mL of RPMI-1640 culture solution containing 10% fetal bovine serum and 1% of double antibodies (penicillin and streptomycin) is added to terminate the digestion, followed by centrifuging at 1,000 revolutions per minute (rpm) for 3 min; then the wall-adhered cells are completely blown down and enumerated by hemocytometer plates, where the cells are inoculated in an 96-well plate in an amount of 100 μL per well, with a controlled number of 5,000 cells per well, and incubated in an incubator for 24 h. CCK-8 experiment dosing: […] Calculation of cell viability for each group:Cell viability (%)=(ODsample−ODblank)×100/(ODcontrol−ODblank)
# [2] = system: AsPC-1 cell; details: 0, 200 μg/mL, 400 μg/mL, 800 ng/mL; 24 h incubation; FIG. 9
# Protocol: 1.2 experimental cell line AsPC-1 of human metastatic pancreatic cancer is purchased from American Type Culture Collection (ATCC);
# 2.1 human metastatic pancreatic cancer cells are cultured in RPMI-1640 culture medium (containing penicillin 100 U/mL, streptomycin 100 U/mL and 10% fetal bovine serum) at 37° C. in a 5% CO2 constant temperature incubator, and cells of logarithmic growth phase are taken for the experiment;
Molecule,Cell vitality (%) ([1]; 0 μg/mL IOP1-1 + 20 μg/mL gemcitabine hydrochloride),mitochondrial membrane potential [2],Cell vitality (%) ([1]; 400 μg/mL IOP1-1 + 0 μg/mL gemcitabine hydrochloride),Cell vitality (%) ([1]; 800 μg/mL IOP1-1 + 0 μg/mL gemcitabine hydrochloride),therapeutic effect on AsPC-1 tumor cells / tumor inhibition ([1]; summary in words of Table 2)
"Nc1ccn([C@@H]2O[C@H](CO)[C@@H](O)C2(F)F)c(=O)n1 [gemcitabine hydrochloride, reference compound]",66.1 ± 5.49,,,,
Inonotus Obliquus dextran [IOP1-1],,decreases as the concentration of drug administered increases,78.2 ± 2.24,66.5 ± 4.12,excellent
